Drawing on the Kinase Knowledgebase extract (Sharma et al. 2016), this text covers IC50, EC50 and inhibition for 38 compounds.

Each structure is given as a SMILES string.

The target in assay [1] is ROCK2 (UniProt O75116). In words: Inhibition of ROCK2 Kinase Activity. The settings on record: for inhibition: concentration not given here.
Assay [2] has as its target PIK3CG (UniProt P48736). Nature of the assay: Inhibition of PIK3CG Kinase Activity.
Assay [3] addresses ROCK2 (human) (UniProt O75116). In words: Assessment of ROCK2 Kinase Activity (ProQinase Setup).
In assay [4] the target is MAPK14 (human) (UniProt Q16539). Nature of the assay: Inhibition of TNF-alpha Production in PBMC Cells.
MAPK14 (human), sequence (Q16539 whole entry, looked up): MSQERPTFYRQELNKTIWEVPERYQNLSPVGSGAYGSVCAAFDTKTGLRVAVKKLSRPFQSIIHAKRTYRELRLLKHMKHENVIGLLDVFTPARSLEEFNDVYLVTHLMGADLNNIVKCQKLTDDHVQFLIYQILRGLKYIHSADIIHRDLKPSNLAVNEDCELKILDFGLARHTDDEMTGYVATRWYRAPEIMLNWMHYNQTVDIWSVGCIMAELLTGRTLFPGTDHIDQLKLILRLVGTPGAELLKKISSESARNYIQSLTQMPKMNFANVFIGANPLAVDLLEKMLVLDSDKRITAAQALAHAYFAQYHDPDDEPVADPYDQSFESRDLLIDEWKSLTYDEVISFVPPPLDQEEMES
For assay [5], the target named is EGFR (UniProt P00533).
Assay [6] has as its target CDK2 (human) (UniProt P24941). In words: Enzyme Assay.
Assay [7] addresses CDK2 (human) (UniProt P24941). In words: Enzyme Assay. The source holds these as a separate data set.
Assay [8] concerns the target EGFR (human) (UniProt P00533). The following applies: a431.
In assay [9] the target is PIK3CA (human) (UniProt P42336). Nature of the assay: Assessment of PI3K Dependent Phosphorylation of p-AKT(T308) in PC3 Cells. The settings on record: pc-3.
PIK3CA (human), sequence (P42336 whole entry, looked up): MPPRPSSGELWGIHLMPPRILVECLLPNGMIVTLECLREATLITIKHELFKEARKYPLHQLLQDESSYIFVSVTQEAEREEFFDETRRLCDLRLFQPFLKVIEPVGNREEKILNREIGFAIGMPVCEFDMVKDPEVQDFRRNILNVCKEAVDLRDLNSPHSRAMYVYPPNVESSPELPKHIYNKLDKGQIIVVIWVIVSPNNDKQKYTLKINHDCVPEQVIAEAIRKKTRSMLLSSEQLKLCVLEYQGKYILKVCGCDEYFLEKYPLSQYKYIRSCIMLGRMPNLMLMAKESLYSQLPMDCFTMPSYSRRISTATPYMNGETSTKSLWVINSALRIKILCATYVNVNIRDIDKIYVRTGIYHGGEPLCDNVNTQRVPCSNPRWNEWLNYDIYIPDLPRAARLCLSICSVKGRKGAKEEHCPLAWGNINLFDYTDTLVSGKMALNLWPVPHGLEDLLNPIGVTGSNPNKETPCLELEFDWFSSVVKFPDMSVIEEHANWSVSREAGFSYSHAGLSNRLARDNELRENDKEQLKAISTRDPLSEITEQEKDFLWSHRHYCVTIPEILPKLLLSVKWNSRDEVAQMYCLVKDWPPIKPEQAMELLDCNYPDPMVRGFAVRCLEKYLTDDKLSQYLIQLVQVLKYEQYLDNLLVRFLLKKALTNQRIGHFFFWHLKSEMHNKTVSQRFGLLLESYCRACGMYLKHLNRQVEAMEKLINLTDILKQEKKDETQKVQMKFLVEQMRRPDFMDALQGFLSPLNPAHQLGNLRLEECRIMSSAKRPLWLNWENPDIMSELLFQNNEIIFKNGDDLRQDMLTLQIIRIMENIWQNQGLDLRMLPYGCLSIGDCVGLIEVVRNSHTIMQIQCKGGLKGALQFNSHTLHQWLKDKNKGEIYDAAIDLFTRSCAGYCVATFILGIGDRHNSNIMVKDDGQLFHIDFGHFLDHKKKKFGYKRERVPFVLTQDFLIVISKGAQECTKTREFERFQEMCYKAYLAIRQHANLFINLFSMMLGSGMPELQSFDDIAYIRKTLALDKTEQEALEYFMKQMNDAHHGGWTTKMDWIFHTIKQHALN
In assay [10] the target is EGFR (UniProt P00533). The source holds these as a separate data set.
The target of assay [11] is PIK3CA (human) (UniProt P42336). In words: Assessment of PIK3CA Kinase Activity in NZB5 Cells.
The target of assay [12] is EGFR (human) (UniProt P00533).
EGFR (human), sequence (P00533 whole entry, looked up): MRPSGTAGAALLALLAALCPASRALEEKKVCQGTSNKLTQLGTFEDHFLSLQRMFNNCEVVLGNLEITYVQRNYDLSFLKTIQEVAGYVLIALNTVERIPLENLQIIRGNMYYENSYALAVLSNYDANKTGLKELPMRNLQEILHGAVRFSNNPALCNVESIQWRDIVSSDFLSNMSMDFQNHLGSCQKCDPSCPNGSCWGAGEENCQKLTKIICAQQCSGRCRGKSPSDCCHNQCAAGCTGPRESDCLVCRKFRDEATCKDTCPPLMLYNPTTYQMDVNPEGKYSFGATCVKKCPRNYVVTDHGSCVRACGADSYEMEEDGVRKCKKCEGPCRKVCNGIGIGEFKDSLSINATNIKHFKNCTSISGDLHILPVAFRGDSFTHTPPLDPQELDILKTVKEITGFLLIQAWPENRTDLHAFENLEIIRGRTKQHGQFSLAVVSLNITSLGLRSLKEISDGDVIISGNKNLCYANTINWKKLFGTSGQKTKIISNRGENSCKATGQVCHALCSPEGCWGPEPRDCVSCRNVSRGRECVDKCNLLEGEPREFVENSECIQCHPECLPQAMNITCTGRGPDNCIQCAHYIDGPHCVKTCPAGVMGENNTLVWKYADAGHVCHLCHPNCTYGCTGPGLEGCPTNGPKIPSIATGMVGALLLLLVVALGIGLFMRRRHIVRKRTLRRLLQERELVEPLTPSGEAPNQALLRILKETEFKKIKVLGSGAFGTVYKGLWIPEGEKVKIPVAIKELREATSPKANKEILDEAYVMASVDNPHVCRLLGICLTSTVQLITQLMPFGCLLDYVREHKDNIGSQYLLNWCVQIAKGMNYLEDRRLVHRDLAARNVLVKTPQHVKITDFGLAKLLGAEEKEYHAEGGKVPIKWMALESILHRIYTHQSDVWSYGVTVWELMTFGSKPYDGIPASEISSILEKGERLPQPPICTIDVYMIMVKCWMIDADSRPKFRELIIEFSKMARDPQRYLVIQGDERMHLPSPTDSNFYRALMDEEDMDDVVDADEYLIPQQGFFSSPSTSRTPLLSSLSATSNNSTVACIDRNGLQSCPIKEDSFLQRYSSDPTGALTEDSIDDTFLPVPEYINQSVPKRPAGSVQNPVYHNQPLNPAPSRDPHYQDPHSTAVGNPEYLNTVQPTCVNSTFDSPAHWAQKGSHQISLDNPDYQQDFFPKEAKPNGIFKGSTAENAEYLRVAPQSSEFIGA
Assay [13] deals with MAPK14 (UniProt Q16539). Nature of the assay: p38 Kinase Inhibition.
MAPK14, sequence (Q16539 whole entry, looked up): as the sequence (Q16539 whole entry, looked up) above
Assay [14] deals with EGFR (human) (UniProt P00533). The following applies: A431.
In assay [15] the target is EGFR (human) (UniProt P00533). The source holds these as a separate data set.
Assay [16] deals with EGFR (UniProt P00533). The source holds these as a separate data set.
Assay [17] has as its target EGFR (murine) (UniProt P00533). The following applies: nih 3t3.
In assay [18] the target is MAPK14 (UniProt Q16539). In words: p38-alpha Inhibition.
Assay [19] has as its target EGFR (human) (UniProt P00533). The source holds these as a separate data set.
Assay [20] addresses ROCK2 (human) (UniProt O75116). Nature of the assay: Assessment of ROCK2 Kinase Activity (Fluorescence Polarization Assay).
For assay [21], the target named is EGFR (human) (UniProt P00533). The following applies: a431. This is another data set of the same source.
Assay [22] concerns the target EGFR (UniProt P00533). The following applies: concentration not given here.
Assay [23] deals with EGFR (human) (UniProt P00533). The settings on record: kb.

ROCK2 (human), sequence (O75116 whole entry, looked up): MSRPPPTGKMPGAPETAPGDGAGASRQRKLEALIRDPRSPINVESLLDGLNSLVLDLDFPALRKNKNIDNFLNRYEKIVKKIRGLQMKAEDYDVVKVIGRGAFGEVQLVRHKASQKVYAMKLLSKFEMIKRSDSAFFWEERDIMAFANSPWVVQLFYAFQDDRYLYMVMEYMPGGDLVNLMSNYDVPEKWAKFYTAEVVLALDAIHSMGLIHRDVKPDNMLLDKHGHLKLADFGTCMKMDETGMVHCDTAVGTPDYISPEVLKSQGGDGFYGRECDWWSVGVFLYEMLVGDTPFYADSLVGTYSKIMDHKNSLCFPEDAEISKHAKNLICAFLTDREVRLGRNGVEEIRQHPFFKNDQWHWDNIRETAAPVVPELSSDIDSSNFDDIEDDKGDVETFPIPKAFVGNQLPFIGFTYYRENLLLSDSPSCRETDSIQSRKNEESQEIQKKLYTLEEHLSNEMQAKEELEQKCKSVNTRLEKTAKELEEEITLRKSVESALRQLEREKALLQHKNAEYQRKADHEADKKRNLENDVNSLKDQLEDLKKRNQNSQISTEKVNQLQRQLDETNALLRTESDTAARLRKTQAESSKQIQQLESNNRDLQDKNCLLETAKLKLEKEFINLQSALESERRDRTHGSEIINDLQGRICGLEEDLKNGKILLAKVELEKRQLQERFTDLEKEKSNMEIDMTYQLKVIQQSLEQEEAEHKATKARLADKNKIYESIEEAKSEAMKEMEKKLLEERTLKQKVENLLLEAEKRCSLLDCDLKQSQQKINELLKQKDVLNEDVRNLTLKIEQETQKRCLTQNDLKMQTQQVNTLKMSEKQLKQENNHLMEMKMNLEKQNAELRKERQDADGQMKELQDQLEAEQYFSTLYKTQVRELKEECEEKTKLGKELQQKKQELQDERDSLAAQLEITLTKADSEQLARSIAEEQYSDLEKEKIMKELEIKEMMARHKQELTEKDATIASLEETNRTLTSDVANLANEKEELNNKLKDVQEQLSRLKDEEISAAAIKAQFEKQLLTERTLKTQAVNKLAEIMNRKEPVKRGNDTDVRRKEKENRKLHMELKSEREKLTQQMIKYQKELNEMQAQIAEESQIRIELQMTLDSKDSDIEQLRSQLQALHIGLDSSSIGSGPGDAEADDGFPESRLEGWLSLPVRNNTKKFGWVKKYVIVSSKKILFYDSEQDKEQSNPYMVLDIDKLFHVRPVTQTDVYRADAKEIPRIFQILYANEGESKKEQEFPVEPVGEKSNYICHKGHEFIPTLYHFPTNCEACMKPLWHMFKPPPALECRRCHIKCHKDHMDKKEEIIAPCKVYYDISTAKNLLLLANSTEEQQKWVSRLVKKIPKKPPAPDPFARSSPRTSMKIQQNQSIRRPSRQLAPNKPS
ROCK2, sequence (O75116 whole entry, looked up): as above

Usually IC50 stands for the concentration needed to halve the response being measured. For `N#C/C(=C1/Nc2ccccc2S1)c1ccnc(NCCc2cccnc2)n1`, the IC50 is 5000 to 10000 nM in assay [1] and greater than 10000 nM in [2].

For the compound `NCc1ccc(C(=O)Nc2ccncc2F)cc1-c1cccc(CC(=O)OC2CC3CCC2C3)c1` (stereo unspecified), the IC50 in [3] lay within 100 to 1000 nM.

For `CCC(=O)Nc1cc(Nc2ncnc3cc(OC)c(OC)cc23)ccc1F`, the IC50 in assay [4] turned out to be 3200 nM. That is a single-digit micromolar value.

As for `N#Cc1cnc2c(sc3ccc([N+](=O)[O-])cc32)c1Nc1cccc(Br)c1`, the 50% inhibitory concentration (IC50) in assay [5] was found to be 10000 nM.

As to `CC[C@@H](CO)Nc1cc(NCc2ccc(-c3ccccn3)cc2)c2ncn(C(C)C)c2n1`, the figures for the IC50 in assay [6] and in assay [7] were 150 nM and 100 nM, respectively.

For orientation: EC50 means the concentration at which the effect is half-maximal. A higher EC50 goes with a need for much substance. Compound `CCOc1cc2ncc(C#N)c(Nc3ccc(OCc4ccccn4)c(Cl)c3)c2cc1NC(=O)C=C1CCNCC1` gave an EC50 in [8] of 160 nM.

`CSc1c(-c2ccncc2)nc(-c2ccc(NC(=O)Nc3ccc(C(N)=O)cc3)cc2)nc1N1CCOCC1`: the IC50 in assay [9] was less than 10 nM.

With `NC(=O)c1cc2ccc(O)c(O)c2cn1`, in [10], the IC50 is greater than 100000 nM.

Turning to `Cc1ccc([N+](=O)[O-])cc1S(=O)(=O)N(C)N=Cc1cnn2cc(Br)ccc12`, in [11], the IC50 was greater than 20000 nM.

In turn, `COCCOc1cc2ncnc(Nc3ccc4[nH]ccc4c3)c2cc1NC(=O)C=C1CCNCC1` returned an EC50 in assay [8] of 13 nM.

`Cn1c(SSc2c(C(=O)Nc3ccccc3)c3cc(C(F)(F)F)ccc3n2C)c(C(=O)Nc2ccccc2)c2cc(C(F)(F)F)ccc21` gave a concentration for half-maximal inhibition (IC50) in assay [12] greater than 100000 nM.

For `C[C@]1(C(=O)N2CCOCC2)CO[C@H](c2nc(-c3ccc(F)cc3)c(-c3ccnc(NCc4ccccn4)n3)[nH]2)OC1`, the IC50 in [13] was 11 nM.

In assay [13], `COc1cc2ncnc(N3CCN(C(=S)NCc4ccc5c(c4)OCO5)CC3)c2cc1OC` displayed an IC50 greater than 30000 nM.

As to `COCCCOC(=O)c1cccc(-c2cc(C(=O)Nc3ccncc3)ccc2CN)c1`, the IC50 in [3] lay in the range of 100 to 1000 nM.

In [5], `C=CC(=O)Nc1ccc2sc3c(Nc4cccc(Br)c4)c(C#N)cnc3c2c1` showed an IC50 of 10000 nM.

Compound `NS(=O)(=O)c1ccc(Nc2nc(OCC3CCCCC3)c3nc[nH]c3n2)cc1` displayed an IC50 in assay [1] of 600 nM.

`C[C@@H](Nc1nc[nH]c2nc(-c3ccccc3)cc1-2)c1ccccc1`: the IC50 in assay [14] fell in the range of 10 to 50 nM.

`CC(C)(C)NC(=O)c1cccc(Oc2ccc(Nc3ncnc4ccn(CCO)c34)cc2Cl)c1` showed an IC50 in assay [15] of 2.3 nM.

Compound `CN(C(=O)NCCCl)c1ccc2ncnc(Nc3cccc(Br)c3)c2c1` registered an IC50 in [16] of 156 nM.

`COc1cc2ncnc(N3CCN(C(=S)NCc4ccccc4)CC3)c2cc1OC` showed a half-inhibitory concentration (IC50) in [13] greater than 30000 nM.

`COC(=O)Nc1nc2ccc(Oc3ccccc3)nc2[nH]1` returned an IC50 in assay [17] greater than 100000 nM.

One may read the inhibition as the relative decrease from the control value, in per cent. Turning to `Oc1cc2nc(-c3cccs3)c(-c3cccs3)nc2cc1O`, the inhibition in [1] was -18%.

In turn, `N#Cc1cnc2c(sc3ccc(N)cc32)c1Nc1cccc(Br)c1` registered an IC50 in assay [5] of 10000 nM.

`NCc1ccc(C(=O)Nc2ccncc2F)cc1-c1cccc(C(=O)OC[C@H]2CCCO2)c1`: in assay [3], the IC50 is 100 to 1000 nM.

Turning to `ON1=CC=C(C=C1)c2[nH]c3cccnc3c2c4ccc(F)cc4`, in [18], the IC50 was 2500 nM.

`O=C(/C=C/CN1CC2CC1CO2)Nc1cc2c(Nc3ccc(F)c(Cl)c3)ncnc2cc1OC1CCCC1` (stereo unspecified) gave an IC50 in [19] of 0.5 nM.

`CC(N)c1ccc(C(=O)Nc2ccncc2)cc1-c1cccc(C(=O)OCc2ccncc2)c1` (stereo unspecified) returned an IC50 in [20] of less than 100 nM.

In assay [21], `COc1ccc(OC)c(Cc2cc3c(NC4C=C(Br)C=CC4)nc(N)nc3[nH]2)c1` (stereo unspecified) showed an IC50 greater than 50000 nM.

In assay [18], `CCOCn1c(-c2ccncc2)c(-c2ccc(F)cc2)c2ncccc21` came in with a half-inhibitory concentration (IC50) of 21 nM. This lies in the double-digit nanomolar range.

Turning to `Cc1cccc(Nc2ncnc3ccc(N)cc23)c1`, in assay [16], the half-inhibitory concentration (IC50) turned out to be 1000 nM. This lies in the single-digit micromolar range.

`Cn1c(SSc2c(C(=O)Nc3cccnn3)c3ccccc3n2C)c(C(=O)Nc2cccnc2)c2ccccc21`: the half-maximal inhibitory concentration (IC50) in [12] is greater than 100000 nM.

`CN(C(=O)NCCCl)c1ccc2ncnc(Nc3cccc(Cl)c3)c2c1` came in with an IC50 in assay [16] of 81 nM.

Consider `NC(=O)c1c(NC(=O)Nc2ccccc2)sc2cc(O)ccc12`, for which the inhibition in assay [1] and in assay [22] was greater than 50% throughout.

Regarding `ON1=CC=Cc2[nH]c(c3ccncc3)c(c4ccc(F)cc4)c12`, the IC50 in assay [18] amounted to 6700 nM.

In [23], `COc1cc2ncnc(Nc3cccc(Cl)c3F)c2cc1OC1CCN(C(=O)OCCN2CCCC2)CC1` showed an IC50 of 9 nM. This counts as single-digit nanomolar.

Regarding `N#Cc1cnc2cc3nc[nH]c3cc2c1Nc1cccc(Br)c1`, the IC50 in assay [5] was found to be 1.5 nM.

In assay [9], `CSc1c(-c2ccncc2)nc(-c2ccc(NC(=O)Nc3ccc(N4CCOCC4=O)cc3)cc2)nc1N1CCOCC1` yielded a half-maximal inhibitory concentration (IC50) of 291 nM. In other words, the sub-micromolar range.

In turn, `O=c1[nH]c2ccc(Oc3ccccc3)nc2[nH]1` had an IC50 in [17] greater than 100000 nM.
